The text below walks through data of patent US10519211B2, “Compounds as peptidic GLP1/glucagon/GIP receptor agonists” (SANOFI, priority 2016, dated 2019).

SMILES strings stand for the structures.

Assay [1] has as its target T1, human GIP receptor (hGIP-R) (Homo sapiens, UniProt P48546).
T1 construct: expressed in transfected cells; host or cells: HEK-293
T1 sequence (P48546 22-466): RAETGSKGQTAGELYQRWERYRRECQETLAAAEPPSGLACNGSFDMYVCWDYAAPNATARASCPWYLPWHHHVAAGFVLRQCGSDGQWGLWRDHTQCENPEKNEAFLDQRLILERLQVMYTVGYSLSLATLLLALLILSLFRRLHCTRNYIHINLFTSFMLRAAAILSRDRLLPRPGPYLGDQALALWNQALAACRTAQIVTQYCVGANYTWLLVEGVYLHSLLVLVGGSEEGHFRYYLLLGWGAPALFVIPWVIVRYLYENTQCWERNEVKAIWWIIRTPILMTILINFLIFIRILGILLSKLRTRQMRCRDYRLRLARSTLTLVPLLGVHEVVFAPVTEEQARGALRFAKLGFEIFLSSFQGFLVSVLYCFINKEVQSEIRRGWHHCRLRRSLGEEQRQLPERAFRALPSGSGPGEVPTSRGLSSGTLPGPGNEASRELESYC
Description: cAMP response (HTRF) of HEK-293 cells stably expressing human GIP receptor. In kind it is cell-based. The settings on record: Table 8; cAMP formation. A digest of the protocol: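 HEK-293 cells stably expressing the receptor, resuspended in HBSS/20 mM HEPES/0.1% BSA/2 mM IBMX at 400000 cells/ml, were exposed to increasing concentrations of peptide for 30 minutes at room temperature. Formed cAMP was measured by HTRF to give potency.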

For assay [2], the system named is female diet-induced obese (DIO) C57BL/6NHsd mice. The assay can be described thus: Acute and chronic effects after subcutaneous treatment in female diet-induced obese (DIO) mice. It is filed as in vivo, mouse. The protocol:
Female C57BL/6NHsd mice were ordered group housed from Envigo RMS Inc., shipped group housed and remained group housed with shipped cage mates in shoebox caging with wood chip bedding until day 38 of the predose phase. At the study start mice were between 25-26 weeks old.
Mice were housed under vivarium conditions that included a 12 h light/dark cycle (light phase 04:00 AM-4:00 PM), room temperatures between 23-26° C. and a relative humidity between 30-70%. All animals had free access to water and a high fat diet (TD97366) for 16 weeks prior to pharmacological intervention (dosing phase). Feed was replaced with fresh feed weekly until and for the last time on day 38 of the predose phase. During the subsequent dosing phase, approximately 50% of the remaining feed were removed, replaced with fresh feed, and pellets were mixed evenly once per week.
On predose day 38, obese DIO mice were assigned to treatment groups (n=8) to match mean body masses between all DIO groups. An age-matched group with ad libitum access to a rodent maintenance diet (Teklad Global Diets Rodent 2014, pelleted) was included in the study as a lean control group. In the predosing phase from day 32 through 38, all study animals were treated with vehicle (Phosphate Buffered Saline, PBS, Gibco, without CaCl2 and MgCl2) once daily (s.c. approximately 0.2 mL/mouse).
On day 37 of the predose phase, the test article was diluted with PBS to a concentration of 100 μg/mL and aliquots of this stock solution were stored at approximately ≤−60° C. Stock aliquots were thawed for weekly use and thereafter stored in a refrigerator at approximately 4° C. The injected test article solution was prepared fresh once on each dosing day by diluting stock solution with PBS to achieve the desired concentration.
Mice were treated twice daily with a s.c. injection of PBS-vehicle or the test article for 28 days. The morning dosing was initiated and completed between 06:00 and 07:30 AM and the afternoon dosing between 2:00 and 3:30 PM. On day 28 of the dosing phase only the morning dose was administered. The applied volume was 5 ml/kg and the dose was adjusted to the most recent body mass recording of each individual.
Animals had unlimited access to water and feed during the experiment. On day 1 of the dosing phase approximately 5 μL of blood were collected via tail clips at hour 0, prior to the first s.c. dose of PBS-vehicle or test-article as well as 1, 2, 3, 4, 6, and 24 hours post-dose. Animals received the second s.c. dose of PBS-vehicle or test-article 8 hours after the first dose. The 24 hour blood collection of the blood glucose profile was performed prior to dosing on day 2. Glucose measurements were performed in whole blood and in duplicate or triplicate using Aviva glucometers.
Body mass was measured daily approximately between 06:00-07:30 AM from day 32 through 38 of the predosing phase and throughout the 28 days of the dosing phase. During the dosing phase mice were treated twice daily with either a s.c. injection of PBS-vehicle or test article.
To determine whole body fat mass Quantitative Nuclear Magnetic Resonance (QNMR) measurements were performed on predosing day 37 and on day 26 of the dosing phase. During the dosing phase mice were treated twice daily with either a s.c. injection of PBS-vehicle or test article.
On day 28 blood was collected prior to any other inlife activities for determination of plasma insulin concentrations. Then the morning dose was administered and necropsy was performed 4 hours post-dose. For this purpose animals were anesthetized with isoflurane and blood was collected by orbital bleeding.
On day 28 and 4 hours after the morning dose, blood was collected from mice under isoflurane anesthesia as described above. Then mice were killed and livers were collected and weighed.
Data are depicted as means±SEM. […] A One-Way ANOVA and Tukey Test were used for pairwise multiple comparisons of all groups (n=8/group, deviations from group size are indicated). […]

[3] abbreviates: 30 μg/kg s.c. twice daily, 28 days, in words.
The mark [4] stands for this setting: 30 μg/kg s.c. twice daily, day 28, in words.
The mark [5] stands for this setting: 30 μg/kg s.c. twice daily, in words.
Setting [6] is: Table 11, twice-daily 30 μg/kg s.c., day 28, mean ± SEM.

For orientation: EC50 means the midpoint of the concentration-response curve. The low end stands for a more potent agent, the high end for a less potent agent. In turn, `CCCCCCCCCCCCCCCC(=O)N[C@@H](CCC(=O)N[C@@H](CCC(=O)NCCCC[C@H](NC(=O)[C@H](CC(C)C)NC(=O)[C@H](CCCCN)NC(=O)[C@H](CO)NC(=O)[C@H](CC(C)C)NC(=O)[C@H](CC(=O)O)NC(=O)[C@H](CO)NC(=O)[C@@H](NC(=O)[C@H](Cc1ccccc1)NC(=O)[C@@H](NC(=O)CNC(=O)[C@H](CCC(N)=O)NC(=O)C(C)(C)NC(=O)[C@@H](N)Cc1c[nH]cn1)[C@@H](C)O)[C@@H](C)O)C(=O)N[C@@H](CCC(=O)O)C(=O)N[C@@H](CCC(=O)O)C(=O)N[C@@H](CCC(N)=O)C(=O)N[C@@H](CCCNC(=N)N)C(=O)N[C@@H](CCC(N)=O)C(=O)NC(C)(C)C(=O)N[C@@H](CCC(=O)O)C(=O)N[C@@H](Cc1ccccc1)C(=O)N[C@H](C(=O)N[C@@H](CCC(=O)O)C(=O)N[C@@H](Cc1c[nH]c2ccccc12)C(=O)N[C@@H](CC(C)C)C(=O)N[C@@H](CCCCN)C(=O)N[C@@H](C)C(=O)NCC(=O)NCC(=O)N1CCC[C@H]1C(=O)N1CCC[C@H]1C(=O)N[C@@H](CO)C(=O)NC(C)(C)C(=O)N[C@@H](CCCCN)C(=O)N1CCC[C@H]1C(=O)N1CCC[C@H]1C(=O)N1CCC[C@H]1C(=O)N[C@@H](CCCCN)C(N)=O)[C@@H](C)CC)C(=O)O)C(=O)O` [SEQ ID NO: 9, H-Aib-Q-G-T-F-T-S-D-L-S-K-L-K[gGlu-gGlu-Palm]-E-E-Q-R-Q-Aib-E-F-I-E-W-L-K-A-G-G-P-P-S-Aib-K-P-P-P-K-NH2] yielded an EC50 in assay [1] of 5.6 pM. Also, in assay [2] (setting [3]), the “Body mass compared to the DIO-Vehicle group” value is listed as “statistically significant decrease in body mass” and the “Whole body fat mass compared to the DIO-Vehicle group” value was “statistically significantly reduction in whole body fat mass”. In assay [2] (setting [4]), the “Plasma insulin concentrations compared to DIO vehicle” value is on record as “statistically significant reduction in plasma insulin concentrations” and the “Plasma total cholesterol concentrations compared to DIO vehicle” value is “statistically significant reduction in plasma total cholesterol concentrations”. Besides, in assay [2] (setting [5]), the “Liver mass on day 28 compared to DIO animals treated with vehicle” value was “statistically significantly lower liver mass” and the “Plasma alanine aminotransferase concentration on day 28 compared to DIO vehicle” value is listed as “statistically significantly lower plasma alanine aminotransferase concentration”. Further, the “24 hour blood glucose profile following first treatment” value in assay [2] (30 μg/kg s.c., day 1, fed DIO mice, vs DIO control, in words) was “decrease in blood glucose concentrations below concentrations observed in DIO control mice”. Also, the “Body mass change” value in assay [2] (Table 11, twice-daily 30 μg/kg s.c., 28 days, mean ± SEM) was -10.03 ± 2.33 g. Moreover, in assay [2] (Table 11, twice-daily 30 μg/kg s.c., QNMR predose vs day 26, mean ± SEM), the “Whole body fat mass change” value is -5.29 ± 2.32 g. Moreover, in assay [2] (setting [6]), the “Terminal liver mass (g)” value was “+1.11 ± 0.06 g”, the “Terminal plasma alanine aminotransferase (U/L)” value is “+57.13 ± 7.33 U/L”, the “Terminal plasma insulin (U/L)” value is “+38.95 ± 7.30 U/L” and the “Terminal plasma total cholesterol (mmol/L)” value is reported as “+3.97 ± 0.12 mmol/L”.
